Tests used:
apoA1 mRNA [1] = experiment: apoA1 mRNA by RT-qPCR in transfected HepG2 cells; type: cell-based, human; settings: for apoA1 mRNA levels: individual NRIP1 Dicer substrate dsiRNA duplexes (FIG. 8)
Text: Pools of siRNAs that were targeted to NRIP1 (#27) and 32 other transcription modulators were transfected into cultured HepG2 cell along with experimental controls apoA1 siRNA (siApoA1), siRNA non-targeting control (siNT) and transfection media without siRNA (HepG2). […] Each siRNA was designed and synthesized by Dharmacon to interact in a sequence specific manner with the target mRNA and suppress gene expression. For NRIP1, the following siRNA duplexes were used based on the NRIP1 sequence found under GenBank Accession no. NM_173440.
Cultured human hepatoma cell line HepG2 cells were seeded in 6-well plates at a density of 4E5 (i.e., 4×10^5) cells/well in antibiotic free 10% FBS/MEME and cultured for 16 hours. siRNA (20 μM) was prepared by diluting to 2 μM with buffer. To that, equal amounts Opti-MEM medium was added, mixed and kept at room temperature (RT) for 5 minutes. Transfection lipid was prepared using DharmaFECT 4 transfection reagent X25 times diluted with Opti-MEM medium (4 μL/100 medium), mixed and kept at RT for 5 minutes. siRNA and transfection lipid were complexed by mixing equal volumes and incubated for 20 minutes at RT. […]
Forty-eight hours post transfection, medium was removed from transfected HepG2 culture and assessed for secreted apoA1 levels using a human apoA1 sandwich ELISA (MabTech) as described by the manufacturer. […]
HepG2 cells were transfected with varying concentrations of pooled NRIP1 siRNA as described in Example 1, except that 24 hours post transfection 10 μM 9 cis-retinoic acid was added to the growth medium. Cells were harvested 24 hours later and apoA1 and NRIP1 mRNA levels measured as previously described. […]
HepG2 cells were transfected with four individual NRIP1 siRNA duplexes at a concentration of 100 nM or a pool of all four siRNAs at a final concentration 100 nM following the protocol previously described. […] In FIG. 6, expression levels of NRIP1 gene expression were similarly evaluated. […]

apoA1 mRNA [2] = settings: HepG2 cells; Haghpassand et al. 1995; cited from earlier work
NRIP1 target mRNA = experiment: NRIP1 mRNA by RT-qPCR in transfected HepG2 cells; type: cell-based, human; settings: for NRIP1 gene expression (suppression): individual siRNA duplexes 100 nM, vs siNT and lipid controls (FIG. 6); for NRIP1 target gene expression, dose response: 4-fold dilutions from 100 nM to 1.56 nM (FIG. 7)
Method: Cultured human hepatoma cell line HepG2 cells were seeded in 6-well plates at a density of 4E5 (i.e., 4×10^5) cells/well in antibiotic free 10% FBS/MEME and cultured for 16 hours. siRNA (20 μM) was prepared by diluting to 2 μM with buffer. To that, equal amounts Opti-MEM medium was added, mixed and kept at room temperature (RT) for 5 minutes. Transfection lipid was prepared using DharmaFECT 4 transfection reagent X25 times diluted with Opti-MEM medium (4 μL/100 medium), mixed and kept at RT for 5 minutes. siRNA and transfection lipid were complexed by mixing equal volumes and incubated for 20 minutes at RT. Cultured HepG2 cells in 6-sell plates were changed into fresh antibiotic free 10% FBS/MEME (1.6 mL/well) and 400 complexed siRNA was added to each well to a final concentration of 100 nM and incubated for 48 hrs.
HepG2 cells were transfected with varying concentrations of pooled NRIP1 siRNA as described in Example 1, except that 24 hours post transfection 10 μM 9 cis-retinoic acid was added to the growth medium. Cells were harvested 24 hours later and apoA1 and NRIP1 mRNA levels measured as previously described. RT-qPCR was performed as described (Zhu et al., Analytical Biochemistry 345:102-109 (2005)) using the following NRIP1 specific primer/probes:
HepG2 cells were transfected with four individual NRIP1 siRNA duplexes at a concentration of 100 nM or a pool of all four siRNAs at a final concentration 100 nM following the protocol previously described. Following isolation of total RNA, RT-qPCR was performed for apoA1 and NRIP1 gene expression. FIG. 5 compared apoA1 mRNA gene expression for siRNA samples to the siNT and lipid controls. In FIG. 6, expression levels of NRIP1 gene expression were similarly evaluated.
The differential effectiveness of individual sequence specific RNAi molecules to inhibit gene expression is well documented (Soutschek et al., Nature 432: 173-178 (2004)). […] The NRIP1 siRNA #5 and #8 were compare using 4-fold dilutions from 100 nM to 1.56 nM.

Compound | apoA1 mRNA levels (apoA1 mRNA [1]) | NRIP1 gene expression (suppression) (NRIP1 target mRNA) | NRIP1 target gene expression, dose response (NRIP1 target mRNA) | also measured
dsi#27-2: NRIP1 Dicer substrate RNAi duplex (IDT): sense 5′-AGGAGUCACAGAAAUAAUGAAAUGG, antisense 5′-CCAUUUCAUUAUUUCUGUGACUCCUGU | elevated |  |  | 
CC1=C(/C=C/C(C)=C\C=C\C(C)=C\C(=O)O)C(C)(C)CCC1 [9CRA, 9-cis retinoic acid] |  |  |  | endogenous apoA1 gene expression (apoA1 mRNA [2]): stimulates
oligo #7: NRIP1 siRNA duplex: sense GGACUGGAAUGCAGCAAAGUU (SEQ ID NO: 14), antisense 5′P-CUUUGCUGCAUUCCAGUCCUU (SEQ ID NO: 15) (5' phosphate on antisense, further chemistry not given here) |  | least effective |  | apoA1 mRNA gene expression (induction) (apoA1 mRNA [1]; individual siRNA duplexes 100 nM, vs siNT and lipid controls (FIG. 5)): least effective
dsi#27-1: NRIP1 Dicer substrate RNAi duplex (IDT): sense 5′-AGACUAUACCUAAGCCAAUGAAUGG, antisense 5′-CCAUUCAUUGGCUUAGGAUAGUCUGG | elevated |  |  | 
siRNA #8: NRIP1 siRNA duplex: sense AUACGAAUCUUCCUGAUGUUU (SEQ ID NO: 9), antisense 5′P-ACAUCAGGAAGAUUCGUAUUU (SEQ ID NO: 16) (5' phosphate on antisense strand, further chemistry not given here) |  | most effective | inhibited better | 
siRNA #5: NRIP1 siRNA duplex: sense GAAGCGUGCUAACGAUAAAUU (SEQ ID NO: 7), antisense 5′P-UUUAUCGUUAGCACGCUUCUU (SEQ ID NO: 12) (5' phosphate on antisense strand, further chemistry not given here) |  | most effective | inhibited better by siRNA #8 over siRNA #5 | 

Source: patent US8257921B1, “NRIP1 regulation of apolipoprotein A1” (Schering Corporation, priority 2008, dated 2012)
